Test results: patent publication US20230165867A1 (CHENGDU BAIYU PHARMACEUTICAL CO., LTD., priority 2020, published 2023)
Like-named read-outs stand apart in the source and are kept apart here.

Tests used:
[1] = Metabolic stability in liver microsomes; format: in vitro ADME, human; conditions: 0.5 µM test substance, 0.5 mg/mL microsomes, NADPH and UDPGA, 37° C.; for half-life at 0.5 µM: human, human liver microsomes, read-out: T½(min), stability in human liver microsomes
Procedure: Liver microsomes (purchased from Reed Liver Disease Research (Shanghai) Co., Ltd., product: human liver microsomes (NJT)); NADPH (purchased from Roche, Lot: 40939); UDPGA; the compounds of the present invention (test substances).
• (1) A mixed working solution of testosterone (0.5 µM) and 7-hydroxycoumarin (0.5 µM) was prepared. • (2) A mixed solution of NADPH (1 mM) and UDPGA (1 mM) was prepared, and prewarmed at 37° C. in a water bath shaker before use. • (3) Liver microsomes were thawed and diluted with a buffer. • (4) A preparation of a test substance (0.5 µM) and a solution of liver microsomes (0.5 mg/mL) were added to each well of an incubation plate. • (5) Three experimental groups were set and samples were added. Test group: the test substance was incubated with liver microsomes for 0 min, 30 min, 60 min, and 120 min in the presence of the coenzyme NADPH and UDPGA; Positive control group: testosterone (0.5 µM) and 7-hydroxycoumarin (0.5 µM) were incubated with microsomes for 0 min and 120 min in the presence of the coenzyme NADPH and UDPGA; Negative control group: the test substance was incubated with microsomes for 0 and 120 min without any coenzyme. • (6) All samples were incubated at 37° C., and pre-cooled methanol was added at each termination time (0, 15, 30, 45, 60 min, 120 min) to terminate the reaction, and the time was recorded. • (7) All samples were mixed well and centrifuged at 4000 rpm for 10 min. The supernatant was taken and measured by LC-MS/MS for the amount of the test substance remaining in the samples. Data analysis was carried out as follows: T½=0.693 /k, Clint = (0.693/T½) × (1 /(microsomal protein) × Scaling Factors), Note: k is the slope of the logarithm of the remaining amounts of compound versus time.

[2] = molecular target: T1, DNA-PK kinase (Homo sapiens, UniProt P78527); assay: Inhibition assay of DNA-PK kinase (Promega kit, ADP-Glo chemiluminescence); format: biochemical; conditions: 50 µM ATP, 37° C., 60 min; read-out: IC50 (nM), inhibitory activity on DNA-PK kinase
T1 construct: purchased Promega V4107
Procedure: The inhibitory activity of the compounds on DNA-PK kinase was measured by using a DNA-PK kinase assay kit (purchased from Promega, Cat.#: V4107, Lot: 0000366495). The results were quantified by chemiluminescence, and the detailed experimental protocol was as follows: • i. An ADP-fluorescence standard curve over a range of concentrations was plotted according to the kit instructions; • ii. […] The mixtures were mixed well, centrifuged (1000 rpm, 30 s), and incubated at 37° C. for 60 min; • iv. 5 µL of ADP-Glo™ Reagent was added to stop the reaction, which was then mixed well, centrifuged (1000 rpm, 30 s), and incubated at room temperature for 40 min; • v. 10 µL Kinase Detection Reagent was added, and the mixture was mixed well by shaking, centrifuged (1000 rpm, 30 s), and incubated at room temperature for 30 min; • vi. The […] was measured by using a microplate reader (Thermo fisher, Varioskan LUX).

[3] = Pharmacokinetic assay in ICR mice (i.v. and p.o.); format: in vivo; conditions: mouse, plasma, male ICR mice; for half-life: read-out: T½ (converted); for bioavailability: po 10 mg/kg vs iv 1 mg/kg
Procedure: ICR mice were purchased from Beijing Vital River Laboratory Animal Technology Co., Ltd.
3.2 Experimental procedure • (1) Healthy male ICR mice (18-22 g) were prepared, with 18 mice for each compound. The mice were divided into 2 groups (an i.v. group and a p.o. group), with 9 mice per group. 3 mice were picked for blood collection at each time point. • (2) After the animals were fasted overnight (with free access to water), the compound of the present invention dissolved (or suspended) in a solvent of 5% DMSO and 95% 30% HP-β-CD (v:v) was administered via the tail vein (i.v., 1 mg/kg) or intragastrically (p.o., 10 mg/kg), respectively. • (3) For the i.v. group, 0.1 mL blood was collected from the submandibular vein 5 min, 15 min, 0.5 h, 1 h, 2 h, 4 h, 8 h, 12 h, and 24 h after administration, respectively, anticoagulated with EDTA-K2, and centrifuged at 4° C. for 5 min to obtain plasma, which was stored at -20° C. until testing. (4) For the p.o. group, 0.1 mL blood was collected from the submandibular vein before administration and 15 min, 0.5 h, 1 h, 2 h, 4 h, 6 h, 8 h, 12 h, and 24 h after administration, and treated in the same manner as that for the intravenous group. • (5) The concentration of the compound of the present invention in plasma was measured by LC/MS/MS. • (6) Calculation and fitting were performed with Analyst 1.6 from AB Company, and the results are shown in Table 3.

Row | half-life at 0.5 µM [1] [min] | T½(min), stability in human liver microsomes [1] [min] | IC50 [2] [nM] | AUC ([3]; iv, 1 mg/kg) [ng·h/mL] | half-life ([3]; iv, 1 mg/kg) [h] | bioavailability [3] [%] | AUC ([3]; po, 10 mg/kg) [ng·h/mL] | Cmax ([3]; po, 10 mg/kg) [ng/mL] | half-life ([3]; po, 10 mg/kg) [h] | Compound
1 | > 120 | – | – | – | – | – | – | – | – | Cc1cc(C(N)=O)c(F)cc1Nc1ncc2c(n1)n(C1CCC(C)(C#N)CC1)c(=O)n2C (single isomer, unassigned) [Compound 92-1, 4-((9-(4-cyano-4-methylcyclohexyl)-7-methyl-8-oxo-8,9-dihydro-7H-purin-2-yl)amino)-2-fluoro-5-methylbenzamide]
2 | – | >120 | – | – | – | – | – | – | – | Cc1cc(C(N)=O)c(F)cc1Nc1ncc2c(n1)n(C1CCC(C)(C#N)CC1)c(=O)n2C (single isomer, unassigned) [Compound 92-2, 4-((9-(4-cyano-4-methylcyclohexyl)-7-methyl-8-oxo-8,9-dihydro-7H-purin-2-yl)amino)-2-fluoro-5-methylbenzamide]
3 | > 120 | – | 1.1 | – | – | – | – | – | – | [2H]C([2H])([2H])c1cc(C(N)=O)c(F)cc1Nc1ncc2c(n1)n(C1CCOCC1)c(=O)n2C [Compound 44, 2-Fluoro-5-(methyl-d3)-4-((7-methyl-8-oxo-9-(tetrahydro-2H-pyran-4-yl)-8,9-dihydro-7H-purin-2-yl)amino)benzamide]
4 | > 120 | – | – | 1700 | 2.92 | 166 | 28200 | 4680 | 2.58 | Cc1cc(C(N)=O)c(F)cc1Nc1ncc2c(n1)n([C@H]1CC[C@@](C)(O)CC1)c(=O)n2C [Compound 72, 2-Fluoro-4-((9-(cis-4-hydroxy-4-methylcyclohexyl)-7-methyl-8-oxo-8,9-dihydro-7H-purin-2-yl)amino)-5-methylbenzamide]
5 | > 120 | – | – | 239 | 1.24 | 56 | 1270 | 484 | 2.5 | Cc1cc(C(N)=O)c(F)cc1Nc1ncc2c(n1)n([C@H]1CC[C@](C)(O)CC1)c(=O)n2C [Compound 73, 2-Fluoro-4-((9-(trans-4-hydroxy-4-methylcyclohexyl)-7-methyl-8-oxo-8,9-dihydro-7H-purin-2-yl)amino)-5-methylbenzamide]

Second part, the molecule before the results:

Row | Compound | half-life at 0.5 µM [1] [min] | T½(min), stability in human liver microsomes [1] [min] | IC50 [2] [nM] | AUC ([3]; iv, 1 mg/kg) [ng·h/mL] | half-life ([3]; iv, 1 mg/kg) [h] | bioavailability [3] [%] | AUC ([3]; po, 10 mg/kg) [ng·h/mL] | Cmax ([3]; po, 10 mg/kg) [ng/mL] | half-life ([3]; po, 10 mg/kg) [h]
6 | [2H]C([2H])([2H])c1cc(C#N)ccc1Nc1ncc2c(n1)n(C1CCOCC1)c(=O)n2C (single isomer, unassigned) [Compound 25, 3-(Methyl-d3)-4-((7-methyl-8-oxo-9-(tetrahydro-2H-pyran-4-yl)-8,9-dihydro-7H-purin-2-yl)amino)benzonitrile] | > 120 | – | – | – | – | – | – | – | –
7 | Cc1cc(C#N)c(F)cc1Nc1ncc2c(n1)n(C1CCOCC1)c(=O)n2C [Compound 8, 2-Fluoro-5-methyl-4-((7-methyl-8-oxo-9-(tetrahydro-2H-pyran-4-yl)-8,9-dihydro-7H-purin-2-yl)amino)benzonitrile] | > 120 | – | 11.7 | – | – | – | – | – | –
8 | [2H]C([2H])([2H])NC(=O)c1cc(C)c(Nc2ncc3c(n2)n(C2CCOCC2)c(=O)n3C)cn1 [Compound 39, 4-Methyl-N-(methyl-d3)-5-((7-methyl-8-oxo-9-(tetrahydro-2H-pyran-4-yl)-8,9-dihydro-7H-purin-2-yl)amino)picolinamide] | > 120 | – | 5.7 | – | – | – | – | – | –
9 | CCn1c(=O)n(C2CCOCC2)c2nc(Nc3cc(F)c(C(N)=O)cc3C)ncc21 [Compound 62, 4-((7-ethyl-8-oxo-9-(tetrahydro-2H-pyran-4-yl)-8,9-dihydro-7H-purin-2-yl)amino)-2-fluoro-5-methylbenzamide] | – | – | 4.17 | 1190 | 1.69 | 44.8 | 4720 | 1850 | 3.01
10 | Cc1cc(C#N)ccc1Nc1ncc2c(n1)n([C@H]1CC[C@@H](C#N)CC1)c(=O)n2C [Compound 78, 4-((9-(cis-4-cyanocyclohexyl)-7-methyl-8-oxo-8,9-dihydro-7H-purin-2-yl)amino)-3-methylbenzonitrile] | – | – | 0.038 | 216 | 1.17 | 65.2 | 1200 | 446 | 3.5
